In DBAASP:
In brackets after ≈: the same amount, converted by molar mass. Several values for one entry are separate records, joined by “and”; a condition that tells them apart may be missing. Identical values can stand only once.

Key:
Experiment in all cases: ≥ marks a high value that may be exact or a test limit, other limits are often not marked, values filed in µg/mL are converted to µM
[1] = tested on: Staphylococcus aureus ATCC 25923
[2] = tested on: Escherichia coli DSM 1103
[3] = tested on: Streptococcus pneumoniae DSM 11865
[4] = tested on: Pseudomonas aeruginosa DSM 1128
[5] = tested on: Klebsiella pneumoniae DSM 681
[6] = tested on: Pseudomonas syringae pv. syringae DSM 10604
[7] = tested on: Pseudomonas syringae pv. tomato DC3000
[8] = tested on: Pseudomonas corrugata DSM 7228
[9] = tested on: Pectobacterium carotovorum subsp. carotovorum DSM 30168
[10] = tested on: Clavibacter michiganensis subsp. michiganensis DSM 46294
[11] = tested on: Xanthomonas vesicatoria DSM 50861
[12] = tested on: Staphylococcus aureus 90857
[13] = tested on: Candida albicans ATCC 10231
[14] = tested on: Pseudomonas aeruginosa ATCC 27853
[15] = tested on: Enterobacter cloacae ATCC 49141
[16] = tested on: Staphylococcus aureus II ATCC 6538P
[17] = tested on: Acinetobacter baumannii ATCC 19606
[18] = tested on: Escherichia coli D21
[19] = tested on: Escherichia coli ATCC 25922
[20] = tested on: Bacillus subtilis KCTC 3038
[21] = tested on: Escherichia coli ATCC 27325
[22] = tested on: Staphylococcus aureus ATCC 15752
[23] = tested on: Cryptococcus neoformans ATCC 34881
[24] = tested on: Enterococcus faecalis ATCC 29212
[25] = tested on: Salmonella typhimurium KCTC 2370
[26] = tested on: Saccharomyces cerevisiae ATCC 44774
[27] = tested on: Micrococcus luteus ATCC 10240
[28] = tested on: Klebsiella pneumoniae ATCC 10031
[29] = tested on: Pseudomonas aeruginosa ATCC 13388
[30] = tested on: Escherichia coli ATCC 11219
[31] = tested on: Staphylococcus aureus ATCC 6538
[32] = tested on: Salmonella enterica subsp. enterica serovar Typhimurium ATCC 14028
[33] = tested on: Pseudomonas putida NCIM 2102
[34] = tested on: Saccharomyces cerevisiae ATCC 8530
[35] = tested on: Staphylococcus aureus ATCC 8530
[36] = tested on: Escherichia coli W160-37
[37] = tested on: Alternaria alternata
[38] = tested on: Cladosporium herbarum
[39] = tested on: Botrytis cinerea

`CC(C)C[C@H](NC(=O)[C@@H](NC(=O)[C@H](C)NC(=O)[C@H](C)NC(=O)[C@H](CCCN=C(N)N)NC(=O)CNC(=O)CNC(=O)[C@H](CCCN=C(N)N)NC(=O)[C@@H](NC(=O)[C@H](CCCN=C(N)N)NC(=O)[C@H](C)NC(=O)[C@H](Cc1ccc(O)cc1)NC(=O)[C@H](Cc1ccc(O)cc1)NC(=O)[C@H](CCCCN)NC(=O)[C@H](CCC(N)=O)NC(=O)[C@@H](N)CC(C)C)C(C)C)C(C)C)C(=O)N[C@@H](CO)C(=O)O` [LQKYYARVRGGRAAVLS] showed an MIC [1] greater than 157 µM, an MIC [2] of no less than 157 µM and an MIC [3] of no less than 157 µM. The MIC [4] was no less than 157 µM and the MIC [5] was no less than 157 µM.
With `CC(C)C[C@H](NC(=O)[C@H](CC(C)C)NC(=O)[C@H](CCCN=C(N)N)NC(=O)[C@H](CCCCN)NC(=O)[C@H](CC(C)C)NC(=O)[C@H](CC(C)C)NC(=O)[C@H](CCCCN)NC(=O)[C@H](CC(C)C)NC(=O)[C@H](CCCN=C(N)N)NC(=O)[C@H](CCCCN)NC(=O)[C@H](CCCCN)NC(=O)[C@@H](N)CCCN=C(N)N)C(N)=O` [RKKRLKLLKRLL] the MIC [6] was 0.0639 µM (≈ 0.0999 µg/mL), the MIC [7] was 6.39 µM (≈ 9.99 µg/mL) and the MIC [8] was 0.0639 µM (≈ 0.0999 µg/mL). The MIC [9] was 6.39 µM (≈ 9.99 µg/mL), the MIC [10] was 1.6 µM (≈ 2.5 µg/mL) and the MIC [11] was 0.0639 µM (≈ 0.0999 µg/mL). The MIC [12] was 6.25 µM (≈ 9.78 µg/mL).
`CC(C)C[C@H](NC(=O)[C@H](Cc1cnc[nH]1)NC(=O)[C@H](CCCN=C(N)N)NC(=O)[C@H](CC(C)C)NC(=O)[C@H](CC(C)C)NC(=O)[C@H](Cc1cnc[nH]1)NC(=O)[C@H](CCCN=C(N)N)NC(=O)[C@H](CC(C)C)NC(=O)[C@H](CC(C)C)NC(=O)[C@H](Cc1cnc[nH]1)NC(=O)[C@H](CCCN=C(N)N)NC(=O)[C@H](CC(C)C)NC(=O)[C@H](C)NC(=O)[C@H](CC(=O)O)NC(=O)[C@@H](N)CC(=O)O)C(=O)O` [DDALRHLLRHLLRHL] was tested, and the MIC [13] was 25 µM and > 12.5 µM, the MIC [14] was 100 µM (≈ 188 µg/mL) and the MIC [15] was no less than 100 µM. For the same compound, the MIC [16] was no less than 100 µM, the MIC [17] was greater than 100 µM and the MIC [18] was no less than 100 µM. It also gave an MIC [19] of 100 µM (≈ 188 µg/mL).
`CC(C)[C@H](NC(=O)[C@H](CCCCN)NC(=O)[C@H](CCC(=O)O)NC(=O)[C@H](CCCCN)NC(=O)[C@@H](NC(=O)[C@@H](NC(=O)[C@H](CCC(N)=O)NC(=O)[C@@H](NC(=O)[C@@H](NC(=O)[C@@H]1CCCN1C(=O)[C@H](CCCN=C(N)N)NC(=O)[C@@H](NC(=O)[C@@H](NC(=O)[C@@H](N)CCCN=C(N)N)C(C)C)C(C)C)C(C)C)C(C)C)C(C)C)C(C)C)C(=O)N[C@@H](CCCN=C(N)N)C(=O)O` [RVVRPVVQVVKEKVR] gave an MIC [13] of 35.7 µM (≈ 64 µg/mL), an MIC [14] greater than 35.7 µM and an MIC [20] of no less than 35.7 µM. For the same compound, the MIC [21] was no less than 35.7 µM, the MIC [22] was no less than 35.7 µM and the MIC [23] was no less than 35.7 µM. For the same compound, the MIC [24] was greater than 35.7 µM, the MIC [25] was no less than 35.7 µM and the MIC [26] was no less than 35.7 µM. For the same compound, the MIC [27] was no less than 35.7 µM.
`CC[C@H](C)[C@H](NC(=O)CN)C(=O)N[C@@H](Cc1cnc[nH]1)C(=O)N[C@@H](CC(=O)O)C(=O)N[C@H](C(=O)N[C@@H](CC(C)C)C(=O)N[C@@H](CCCCN)C(=O)N[C@@H](Cc1ccc(O)cc1)C(=O)NCC(=O)N[C@@H](CCCCN)C(=O)N[C@@H](CCCN=C(N)N)C(=O)N[C@@H](CO)C(N)=O)[C@@H](C)CC` [GIHDILKYGKRS] gave an MIC [28] of 10 µM (≈ 13.9 µg/mL), an MIC [29] of 20 µM (≈ 27.7 µg/mL) and an MIC [30] of 10 µM (≈ 13.9 µg/mL). The MIC [31] was 10 µM (≈ 13.9 µg/mL) and the MIC [32] was 20 µM (≈ 27.7 µg/mL).
`CC[C@H](C)[C@@H]1NC(=O)[C@@H]2CCCN2C(=O)[C@H](CC(C)C)NC(=O)[C@@H]2CCCN2C(=O)[C@H]([C@@H](C)CC)NC(=O)[C@H](C)NC(=O)[C@H](Cc2ccc(O)cc2)NC(=O)[C@@H](NC(=O)[C@@H](NC(=O)[C@@H](N)CCCN=C(N)N)C(C)C)CSSC[C@@H](C(N)=O)NC1=O` [RVCYAIPLPIC] gave an MIC [33] of no less than 48.1 µM, an MIC [34] of no less than 80.2 µM and an MIC [35] of no less than 40.1 µM. The MIC [36] was no less than 48.1 µM.
With `CC[C@H](C)[C@H](NC(=O)[C@H](C)NC(=O)[C@H](CCCCN)NC(=O)[C@H](CCCCN)NC(=O)[C@H](CC(C)C)NC(=O)[C@H](Cc1ccccc1)NC(=O)[C@H](Cc1cnc[nH]1)NC(=O)[C@H](C)NC(=O)[C@H](CC(C)C)NC(=O)[C@H](C)N)C(=O)N[C@@H](CCCCN)C(=O)N[C@@H](CCCCN)C(N)=O` [ALAHFLKKAIKK] the MIC [37] was no less than 73.1 µM, the MIC [38] was no less than 73.1 µM and the MIC [6] was 3.66 µM (≈ 5 µg/mL). The MIC [7] was 7.31 µM (≈ 9.99 µg/mL), the MIC [8] was 14.6 µM (≈ 20 µg/mL) and the MIC [9] was 29.2 µM (≈ 40 µg/mL). For the same compound, the MIC [10] was 29.2 µM (≈ 40 µg/mL), the MIC [11] was 29.2 µM (≈ 40 µg/mL) and the MIC [39] was no less than 73.1 µM.
